Data taken from patent US20230106506A1, “NOVEL PqsR INVERSE AGONISTS” (Helmholtz-Zentrum Fur Infektionsforschung GmbH, priority 2020, published 2023).

Columns and labels:
[1] = Kinetic turbidimetric aqueous solubility; format: physicochemical; conditions: aqueous buffer, kinetic from dmso stock; PBS buffer, final DMSO 2%, absorbance 620 nm; read-out: Kinetic Turbidimetric Aqueous Solubility at room temperature for 5 min
Method: Kinetic Turbidimetric Aqueous Solubility at room temperature for 5 min. […] Data was analyzed by fitting a four parameter sigmoidal function to the measured and normalized absorbances and AUC calculation providing access to Log S (decadic logarithm of the solubility).

[2] = Metabolic stability in mouse liver microsomes (MLM); format: in vitro ADME; conditions: 1 μM compound, 0.5 mg/mL MLM, 1 mM NADPH, 37° C., read-out: half-life (t1/2) towards MLM
Method: For the evaluation of phase I metabolic stability, the compound (1 μM) was incubated with 0.5 mg/mL MLM (Corning) and 1 mM NADPH at 37° C. for 0, 5, 10, 15 and 30 min. The metabolic stability of Verapamil, Diphenhydramine and Benzydamine (1 μM each) were determined in parallel to confirm the enzymatic activity of the MLM. The incubation was stopped by addition of 2 volumes of acetonitrile containing internal standard (1 μM Leucine Enkephaline). Samples were centrifuged (15 min, 3,500 rpm). Concentration of the remaining test compound at the different time points was analyzed by HPLC-MS/MS and used to determine half-life (t1/2).

[3] = test system: P. aeruginosa pyocyanin production; assay: Pyocyanin assay; format: cell-based, P. aeruginosa strain PA14; conditions: Pseudomonas aeruginosa, PA14, 16 h, read-out: IC50-value towards pyocyanin production
Method: Inhibition of P. aeruginosa pyocyanin production by compounds was determined photometrically as described before. In short, an overnight culture of PA14 in PPGAS medium was washed, diluted in medium to a start OD600 of 0.02, and incubated for 16 h (37° C., 200 rpm, relative humidity 75%) in the presence of test compounds. Then, cultures were extracted with chloroform and re-extracted with 0.2 M HCl. Protonated red colored pyocyanin was determined by measuring OD520 and normalizing to OD600.

SMILES | solubility at 5 min [1] | half-life at 1 µM [2] | IC50 [3]
Fc1cc(-c2ncc(CNc3cc(-c4cn[nH]c4)nc(C(F)(F)F)c3)cn2)ccc1Cl [Compound 34, N-((2-(4-Chloro-3-fluorophenyl)pyrimidin-5-yl)methyl)-2-(1H-pyrazol-4-yl)-6-(trifluoromethyl)pyridin-4-amine] | > 10 µM | > 1.67 h | 201 to 500 nM
CC(C)Oc1ccc(-c2ccc(CNc3cc(-c4cn[nH]c4)nc(C(F)(F)F)c3)nc2)cc1Cl [Compound 24, N-((5-(3-Chloro-4-isopropoxyphenyl)pyridin-2-yl)methyl)-2-(1H-pyrazol-4-yl)-6-(trifluoromethyl)pyridin-4-amine] | > 10 µM | > 1.67 h | 201 to 500 nM
Fc1ccccc1Oc1ccc(-c2ncc(CNc3cc(-c4cn[nH]c4)nc(C(F)(F)F)c3)cn2)cc1 [Compound 51, N-((2-(4-(2-Fluorophenoxy)phenyl)pyrimidin-5-yl)methyl)-2-(1H-pyrazol-4-yl)-6-(trifluoromethyl)pyridin-4-amine] | > 50 µM | > 1.67 h | 101 to 200 nM
CC(C)Oc1ccc(-c2ncc(CNc3cc(-c4cn[nH]c4)nc(C(F)(F)F)c3)cn2)cc1F [Compound 49, N-((2-(3-Fluoro-4-isopropoxyphenyl)pyrimidin-5-yl)methyl)-2-(1H-pyrazol-4-yl)-6-(trifluoromethyl)pyridin-4-amine] | > 10 µM | > 1.67 h | 101 to 200 nM
CC(C)Oc1ccc(-c2ncc(CNc3cc(-c4ccc(C#N)nc4)nc(C(F)(F)F)c3)s2)cc1 [Compound 68, 4-(((2-(4-Isopropoxyphenyl)thiazol-5-yl)methyl)amino)-6-(trifluoromethyl)-[2,3′-bipyridine]-6′-carbonitrile] | > 25 µM | > 1.67 h | 201 to 500 nM
Nc1ccc(Oc2ccc(-c3ncc(CNc4cc(-c5cn[nH]c5)nc(C(F)(F)F)c4)cn3)cc2)cc1 [Compound 56, N-((2-(4-(4-Aminophenoxy)phenyl)pyrimidin-5-yl)methyl)-2-(1H-pyrazol-4-yl)-6-(trifluoromethyl)pyridin-4-amine] | > 10 µM | 1.02 to 1.67 h | 101 to 200 nM
CC(C)Oc1ccc(-c2ccc(CNc3cc(-c4cn[nH]c4)nc(C(F)(F)F)c3)nc2)cc1 [Compound 20, N-((5-(4-Isopropoxyphenyl)pyridin-2-yl)methyl)-2-(1H-pyrazol-4-yl)-6-(trifluoromethyl)pyridin-4-amine] | > 10 µM | > 1.67 h | 101 to 200 nM
CC(C)Oc1ccc(-c2ncc(CNc3cc(-n4ccnc4)nc(C(F)(F)F)c3)cn2)cc1Cl [Compound 30, N-((2-(3-Chloro-4-Isopropoxyphenyl)pyrimidin-5-yl)methyl)-2-(1H-imidazol-1-yl)-6-(trifluoromethyl)pyridin-4-amine] | > 10 µM | > 1.67 h | 101 to 200 nM
CC(C)Oc1ccc(-c2ncc(CNc3cc(-n4cncn4)nc(C(F)(F)F)c3)cn2)cc1Cl [Compound 60, N-((2-(3-Chloro-4-isopropoxyphenyl)pyrimidin-5-yl)methyl)-2-(1H-1,2,4-triazol-1-yl)-6-(trifluoromethyl)pyridin-4-amine] | > 10 µM | 1.02 to 1.67 h | 101 to 200 nM
N#Cc1cc(-c2ncc(CNc3cc(-n4cncn4)nc(C(F)(F)F)c3)cn2)ccc1Cl [Compound 39, 5-(5-(((2-(1H-1,2,4-Triazol-1-yl)-6-(trifluoromethyl)pyridin-4-yl)amino)methyl)pyrimidin-2-yl)-2-chlorobenzonitrile] | > 10 µM | > 1.67 h | 101 to 200 nM
FC(F)(F)c1cc(NCc2nc3cc(Oc4ccccc4)ccc3[nH]2)cc(-n2ccnc2)n1 [Compound 61, 2-(1H-imidazol-1-yl)-N-((5-phenoxy-1H-benzo[d]imidazol-2-yl)methyl)-6-(trifluoromethyl)pyridin-4-amine] | > 10 µM | 0.5 to 1 h | 101 to 200 nM
